Data taken from ChEMBL document CHEMBL1151532, “Oxa-prostanoid analogs. Identification of an orally effective, dual thromboxane receptor antagonist /thromboxane synthase inhibitor” (Bioorg Med Chem Lett, 1994).
Several values for one entry are separate records, joined by “and”; a condition that tells them apart may be missing. Equal values may be shown once.

Assays:
Thromboxane-A synthase = target: T1, Thromboxane-A synthase (Homo sapiens, UniProt P24557); assay: In vitro inhibition against thromboxane synthase
T1 sequence (P24557 whole entry): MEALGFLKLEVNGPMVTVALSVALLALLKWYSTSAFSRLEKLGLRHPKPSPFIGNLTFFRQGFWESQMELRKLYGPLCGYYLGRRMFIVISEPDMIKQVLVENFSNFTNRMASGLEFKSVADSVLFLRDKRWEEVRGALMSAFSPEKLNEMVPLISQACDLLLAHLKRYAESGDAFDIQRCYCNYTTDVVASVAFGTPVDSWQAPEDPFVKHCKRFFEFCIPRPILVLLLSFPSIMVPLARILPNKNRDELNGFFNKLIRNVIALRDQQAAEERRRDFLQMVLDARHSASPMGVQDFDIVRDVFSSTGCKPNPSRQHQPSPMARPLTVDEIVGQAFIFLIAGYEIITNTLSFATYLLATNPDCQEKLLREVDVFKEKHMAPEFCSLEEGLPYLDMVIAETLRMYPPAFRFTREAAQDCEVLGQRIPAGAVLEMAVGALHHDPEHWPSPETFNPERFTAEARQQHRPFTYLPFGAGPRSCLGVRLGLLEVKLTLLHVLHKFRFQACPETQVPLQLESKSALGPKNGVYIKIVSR

Cavia porcellus = assay: Ex vivo inhibition of […] induced guinea pig platelet aggregation after 1 hr post oral administration at a dose of 10 mg/kg; Aggregation ratio = EC50 for drug/EC50 for control; assay type: functional
[1] = In vitro thromboxane receptor antagonist against U-46619 induced aggregation of washed human platelets

O=C(O)CC/C=C\CC[C@H]1[C@@H](OCc2ccc(-c3ccccc3)cc2)CO[C@@H]1c1cccnc1 (stereo in doubt; (-))
IC50 (Thromboxane-A synthase): 120 nM

O=C(O)CC/C=C\CC[C@H]1[C@@H](OCc2ccc(-c3ccccc3)cc2)CO[C@@H]1c1cccnc1 (stereo in doubt; (+))
Aggregation ratio (Cavia porcellus; 10 mg/kg): >100 and 65.6
IC50 (Thromboxane-A synthase): 4.3 nM

O=C(O)CC/C=C\CC[C@@H]1[C@@H](c2cccnc2)OC[C@H]1OCc1ccc(-c2ccccc2)cc1
IC50 (Thromboxane-A synthase): 22 nM

O=C(O)CC/C=C\CC[C@H]1[C@@H](OCc2ccc(-c3ccccc3)cc2)CO[C@@H]1c1cccnc1 (stereo in doubt; 5)
IC50 (Thromboxane-A synthase): 17 nM

O=C(O)CC/C=C\CC[C@H]1[C@@H](OCc2ccc(-c3ccccc3)cc2)CO[C@H]1c1cccnc1
IC50 (Thromboxane-A synthase): 32 nM

O=C(O)CC/C=C\CC[C@H]1[C@H](OCc2ccc(-c3ccccc3)cc2)CO[C@H]1c1cccnc1
IC50 (Thromboxane-A synthase): 65 nM

O=C(O)CCCCO/N=C(/c1cccnc1)c1cccc(C(F)(F)F)c1 [RIDOGREL]
Aggregation ratio (Cavia porcellus): 4.4

O=C(O)CCC(CCCCNS(=O)(=O)c1ccc(Cl)cc1)CCCc1cccnc1 (stereo not given)
Aggregation ratio (Cavia porcellus): 24.5
IC50 [1]: 18 nM
